The values below come from article PMC5518866 (British Journal of Cancer, 2017).

The subject of test [1] is proliferating cell nuclear antigen (PCNA). Kind of test: PCNA RNA expression in whole blood. Conditions: for Difference of mean ΔCT values from baseline (ΔΔCT), PCNA: 6 h post dose, whole blood. It is filed as in vivo, human.
For test [2], the system named is patients with advanced malignancies. Kind of test: Tumour response. It is filed as in vivo, human.
The test system is the same in test [3]. Kind of test: Tumour response. The test is classed as in vivo, human. The conditions noted are these: 10 patients.
In test [4] the test system is cell-cycle CDKs 1, 2, 4, and 6 and transcriptional CDKs 7 and 9. The conditions noted are these: cited from earlier work.
Test [5] concerns human cancer cell lines. The conditions noted are these: large panel of human cancer cell lines; ref Siemeister et al, 2012; cited from earlier work.
The subject of test [6] is xenograft mouse models. Conditions: ref Siemeister et al, 2012; cited from earlier work.
Test [7] relates to advanced malignancies. Conditions: phase I, cited from earlier work.
The subject of test [8] is previously treated patients with SCLC. The conditions noted are these: phase II, ref Stephenson et al, 2014; cited from earlier work.
Where [9] appears, read: 104 patients with solid tumours.
Setting [10] is: seven patients, lymphoid malignancy dose-escalation cohorts.

Like-named read-outs stand apart in the source and are kept apart here.

roniciclib: in test [1] (6 h post dose on cycle 1, day 1, ovarian cancer and SCLC patients), the “PCNA expression in peripheral whole blood (fold-change from baseline)” value was “significantly inhibited expression of PCNA”. Also, the “Difference of mean ΔCT values from baseline (ΔΔCT), PCNA” value is recorded as 1.720 in test [1] (Ovarian cancer cohort, Cycle 1, day 1); 0.521 in test [1] (Ovarian cancer cohort, Cycle 1, day 10); 1.006 in test [1] (SCLC cohort, Cycle 1, day 1); 0.224 in test [1] (SCLC cohort, Cycle 1, day 10). For the same compound, the “Disease control rate (DCR)” value in test [2] (5 mg BID, solid tumours bearing a CDK-related tumour mutation (n=6)) is recorded as 33.3%; in test [2] (setting [9]) it was 32.7%; in test [2] (lymphoid malignancy dose-escalation cohorts), 42.9%. Besides, the Complete response entry in test [2] (setting [9]) was “none”. For the same compound, the Partial response in test [2] (setting [9]) is on record as 1.0%. This compound also yielded a Radiological progressive disease in test [2] (setting [9]) of 38.5%. For the same compound, in test [2] (setting [9]), the Response rate was 1.0%. In addition, the Stable disease in test [2] (setting [9]) was found to be 31.7%. Besides, the “Complete or partial response” value in test [2] (setting [10]) is listed as “none”; in test [3], “No patients”. Also, the figures for the “Stable disease, patients” value in test [2] (setting [10]) and in test [3] were “three” and “five”, respectively. In addition, in test [4], the “Activity against CDKs” value is “low nanomolar activity”. Besides, in test [5], the Anti-proliferative activity result is “broad-spectrum anti-proliferative activity”. In addition, the Tumour growth inhibition result in test [6] is recorded as “strongly inhibited tumour growth in a dose-dependent manner”.
Consider `CCc1cnn2c(NCc3ccc[n+]([O-])c3)cc(N3CCCC[C@H]3CCO)nc12` [dinaciclib], for which the “Disease control rate (DCR)” value in test [7] (ref Nemunaitis et al, 2013) is on record as 20.8%. For the same compound, the Objective responses result in test [8] is “no objective responses”.
As to `CC(=O)c1c(C)c2cnc(Nc3ccc(N4CCNCC4)cn3)nc2n(C2CCCC2)c1=O` [palbociclib], the “Disease control rate (DCR)” value in test [7] (ref Flaherty et al, 2012) is 27%.
